Publication PMC6364417, “Kinase inhibitor library screening identifies synergistic drug combinations effective in sensitive and resistant melanoma cells” (Journal of Experimental & Clinical Cancer Research : CR, 2019)

Key:
Test in all cases: Kinase inhibitor library screening, PrestoBlue cell viability, 1 or 10 μM, 72 h
[1] = test system: A375-XP cells (Vemurafenib-resistant); details: A375 XP, 72 h; for cell viability, A375 XP, 1μΜ / cell viability, A375 XP, 10μΜ: in %
Procedure: (§1) After 72 h of treatment, cell viability was assessed using the PrestoBlue Cell Viability Reagent (ThermoFisher Scientific). Measurements were performed with the CLARIOstar Monochromator microplate reader (BMG Labtech).
(§2) Kinase inhibitor library screening. […] Each cell line was treated in its sensitive form (parental), and also as 2 resistant derivatives, which were made resistant to either Vemurafenib (XP) or Dabrafenib (GP). Drugs were added at 2 different concentrations, 1 and 10 μM, for 72 h and cell viability was assessed using the PrestoBlue Cell Viability assay. Results are depicted as % viability compared to untreated cells. Each cell line was analyzed at least in duplicate. […] (XLSX 95 kb)

501Mel cells (parental) = details: 501Mel Parental, 72 h; for cell viability, 501Mel Parental, 1μΜ / cell viability, 501Mel Parental, 10μΜ: in %
Procedure: as §1, §2

[2] = test system: IGR37-XP cells (Vemurafenib-resistant); details: IGR37 XP, 72 h; for cell viability, IGR37 XP, 1μΜ: in %
Procedure: as §1, §2

[3] = test system: IGR37-GP cells (Dabrafenib-resistant); details: IGR37 GP, 72 h; for cell viability, IGR37 GP, 1μΜ: in %
Procedure: as §1, §2

[4] = test system: 501Mel-XP cells (Vemurafenib-resistant); details: 501Mel XP, 72 h; for cell viability, 501Mel XP, 1μΜ / cell viability, 501Mel XP, 10μΜ: in %
Procedure: as §1, §2

[5] = test system: 501Mel-GP cells (Dabrafenib-resistant); details: 501Mel GP, 72 h; for cell viability, 501Mel GP, 1μΜ / cell viability, 501Mel GP, 10μΜ: in %
Procedure: as §1, §2

IGR37 cells (parental) = details: IGR37 Parental, 72 h
Procedure: as §1, §2

[6] = test system: A375-GP cells (Dabrafenib-resistant); details: A375 GP, 72 h; for cell viability, A375 GP, 1μΜ / cell viability, A375 GP, 10μΜ: in %
Procedure: as §1, §2

A375 cells (parental) = details: A375 Parental, 72 h
Procedure: as §1, §2

Row | SMILES | cell viability, A375 XP, 1μΜ ([1]; 1μΜ) | cell viability, A375 XP, 10μΜ ([1]; 10μΜ) | cell viability, 501Mel Parental, 1μΜ (501Mel cells (parental); 1μΜ) | cell viability, 501Mel Parental, 10μΜ (501Mel cells (parental); 10μΜ) | cell viability, IGR37 XP, 10μΜ ([2]; 10μΜ) [%] | cell viability, IGR37 XP, 1μΜ ([2]; 1μΜ) | cell viability, IGR37 GP, 10μΜ ([3]; 10μΜ) [%] | cell viability, IGR37 GP, 1μΜ ([3]; 1μΜ) | cell viability, 501Mel XP, 1μΜ ([4]; 1μΜ) | cell viability, 501Mel XP, 10μΜ ([4]; 10μΜ) | cell viability, 501Mel GP, 1μΜ ([5]; 1μΜ) | cell viability, 501Mel GP, 10μΜ ([5]; 10μΜ) | cell viability, IGR37 Parental, 10μΜ (IGR37 cells (parental); 10μΜ, in %) | cell viability, A375 GP, 1μΜ ([6]; 1μΜ) | cell viability, A375 GP, 10μΜ ([6]; 10μΜ) | cell viability, A375 Parental, 10μΜ (A375 cells (parental); 10μΜ, in %) | cell viability (kinase inhibitor library screening) ([1]; 1μΜ) [%] | cell viability (kinase inhibitor library screening) ([1]; 10μΜ) [%] | cell viability (kinase inhibitor library screening) (501Mel cells (parental); 1μΜ) [%] | cell viability (kinase inhibitor library screening) (501Mel cells (parental); 10μΜ) [%] | other results
1 | CC(C)(C)c1cc(C=C(C#N)C#N)cc(Br)c1O [AG-1024] | 106.8 | 89.1 | 98.8 | 98.3 | 46 | 95.7 | 76.8 | 96.1 | 99.5 | 85.0 | 109.0 | 85.4 | 96.2 | 98.0 | 86.9 | 86.3 |  |  |  |  | cell viability, A375 Parental, 1μΜ (A375 cells (parental); 1μΜ, in %): 99.7
2 | COc1cc2ncnc(Nc3cccc(Cl)c3)c2cc1OC [AG-1478 (Tyrphostin AG-1478)] | 99.5 | 98.9 | 96.5 | 70.7 | 46.3 | 76.6 | 86.3 | 88.5 | 86.2 | 48.5 | 102.7 | 55.4 | 98.8 | 91.6 | 90.4 | 94.0 |  |  |  |  | cell viability, IGR37 Parental, 1μΜ (IGR37 cells (parental); 1μΜ, in %): 96.0
3 | Cc1csc(-c2nnc(Nc3ccc(Oc4ncccc4-c4ccnc(N)n4)cc3)c3ccccc23)c1 [AMG 900] |  |  |  |  |  |  |  |  |  |  |  |  |  |  |  |  | 52.6 | 47.5 | 87.5 | 70.0 | cell viability (kinase inhibitor library screening) ([2]; 1μΜ): 100.0%; cell viability (kinase inhibitor library screening) ([2]; 10μΜ): 66.5%; cell viability (kinase inhibitor library screening) ([3]; 10μΜ): 79.9%; cell viability (kinase inhibitor library screening) ([4]; 1μΜ): 77.2%; cell viability (kinase inhibitor library screening) ([4]; 10μΜ): 59.1%; cell viability (kinase inhibitor library screening) ([5]; 1μΜ): 90.4%; cell viability (kinase inhibitor library screening) ([5]; 10μΜ): 60.6%; cell viability (kinase inhibitor library screening) (IGR37 cells (parental); 1μΜ): 94.6%; cell viability (kinase inhibitor library screening) (IGR37 cells (parental); 10μΜ): 78.1%; cell viability (kinase inhibitor library screening) ([6]; 1μΜ): 44.4%; cell viability (kinase inhibitor library screening) ([6]; 10μΜ): 34.7%; cell viability (kinase inhibitor library screening) (A375 cells (parental); 10μΜ): 30.4%; cell viability (kinase inhibitor library screening) (A375 cells (parental); 1μΜ): 46.4%
4 | O=C1NC(=O)[C@@H](c2cn3c4c(cccc24)CCC3)[C@@H]1c1c[nH]c2ccccc12 [ARQ 197 (Tivantinib)] |  |  |  |  |  |  |  |  |  |  |  |  |  |  |  |  | 34.5 | 24.5 | 52.2 | 26.1 | cell viability (kinase inhibitor library screening) ([2]; 1μΜ): 69.4%; cell viability (kinase inhibitor library screening) ([2]; 10μΜ): 43.0%; cell viability (kinase inhibitor library screening) ([3]; 1μΜ): 85.1%; cell viability (kinase inhibitor library screening) ([3]; 10μΜ): 73.0%; cell viability (kinase inhibitor library screening) ([4]; 1μΜ): 25.8%; cell viability (kinase inhibitor library screening) ([4]; 10μΜ): 10.6%; cell viability (kinase inhibitor library screening) ([5]; 1μΜ): 40.8%; cell viability (kinase inhibitor library screening) ([5]; 10μΜ): 25.6%; cell viability (kinase inhibitor library screening) (IGR37 cells (parental); 1μΜ): 79.8%; cell viability (kinase inhibitor library screening) (IGR37 cells (parental); 10μΜ): 16.2%; cell viability (kinase inhibitor library screening) ([6]; 1μΜ): 30.6%; cell viability (kinase inhibitor library screening) ([6]; 10μΜ): 32.9%; cell viability (kinase inhibitor library screening) (A375 cells (parental); 10μΜ): 29.2%; cell viability (kinase inhibitor library screening) (A375 cells (parental); 1μΜ): 26.4%
